Laboratory results as given in US20250230193A1, “CYCLIC COMPOUND HAVING SELECTIVE KRAS INHIBITORY EFFECT ON HRAS AND NRAS” (CHUGAI SEIYAKU KABUSHIKI KAISHA, priority 2022, published 2025).

Assays:
[1] = target: GDP-bound HRAS wild-type protein (Homo sapiens, UniProt P01112); experiment: Binding to HRAS by surface plasmon resonance (SPR), Single Cycle Kinetics; conditions: KD ratio HRAS/KRAS, class symbols
[2] = target: GDP-bound NRAS wild-type protein (Homo sapiens, UniProt P01111); experiment: Binding to NRAS by surface plasmon resonance (SPR), Single Cycle Kinetics; conditions: KD ratio NRAS/KRAS, class symbols
Chain of GDP-bound NRAS wild-type protein (P01111 whole entry): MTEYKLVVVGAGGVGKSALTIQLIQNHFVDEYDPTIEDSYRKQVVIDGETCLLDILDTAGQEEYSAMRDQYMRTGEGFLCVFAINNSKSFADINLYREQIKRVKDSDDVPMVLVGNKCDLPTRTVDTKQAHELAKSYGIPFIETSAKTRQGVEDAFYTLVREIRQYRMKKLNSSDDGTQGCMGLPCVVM

Chain of GDP-bound HRAS wild-type protein (P01112 whole entry): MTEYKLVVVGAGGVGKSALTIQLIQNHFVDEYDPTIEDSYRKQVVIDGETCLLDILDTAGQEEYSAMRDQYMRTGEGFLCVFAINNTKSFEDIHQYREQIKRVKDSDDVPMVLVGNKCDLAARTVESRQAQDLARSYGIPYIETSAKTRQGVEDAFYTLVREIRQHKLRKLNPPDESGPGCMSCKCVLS

Structure (SMILES)	HRAS/KRAS (ratio of KD value with respect to GDP-bound HRAS wild-type protein to KD value with respect to KRAS) [1]	NRAS/KRAS (ratio of KD value with respect to GDP-bound NRAS wild-type protein to KD value with respect to KRAS) [2]
CCC[C@H]1C(=O)N[C@@H]([C@@H](C)CC)C(=O)N2CCC[C@H]2C(=O)N(C)[C@H]2C/C=C\CCN(C2=O)[C@@H](Cc2ccc(C)cc2)C(=O)N(C)CC(=O)N[C@@H](CCc2ccc(Cl)c(Cl)c2)C(=O)N2C[C@H](OC(C)C)C[C@H]2C(=O)NC2(CC(C)(C)C2)C(=O)N(C)[C@@H](C(CC)CC)C(=O)N(C)[C@H](C(=O)N(C)C)CC(=O)N1C [PP2641]	A (a compound having 10 or more and less than 20 is denoted as A)	AA (a compound having 20 or more is denoted as AA)
CCC(CC)[C@H]1C(=O)N(C)[C@H](C(=O)N(C)C)CC(=O)N(C)[C@@H](COC)C(=O)N[C@@H]([C@@H](C)CC)C(=O)N(C)CC(=O)N(C)[C@H]2C/C=C\CCN(C2=O)[C@@H](Cc2ccc(C(F)(F)F)cc2)C(=O)N(C)CC(=O)N[C@@H](CCc2ccc(Cl)c(Cl)c2)C(=O)N2C[C@H](OC3CCC3)C[C@H]2C(=O)NC2(CC(C)(C)C2)C(=O)N1C [PP2642]	A (a compound having 10 or more and less than 20 is denoted as A)	AA (a compound having 20 or more is denoted as AA)
CCC[C@H]1C(=O)N[C@@H]([C@@H](C)CC)C(=O)N(C)CC(=O)N(C)[C@H]2C/C=C\CCN(C2=O)[C@@H](Cc2ccc(C(F)F)cc2)C(=O)N(C)CC(=O)N[C@@H](CCc2ccc(Cl)c(Cl)c2)C(=O)N2C[C@H](OC3CCC3)C[C@H]2C(=O)NC2(CC(C)(C)C2)C(=O)N(C)[C@@H](C(CC)CC)C(=O)N(C)[C@H](C(=O)N(C)C)CC(=O)N1C [PP2643]	A (a compound having 10 or more and less than 20 is denoted as A)	AA (a compound having 20 or more is denoted as AA)
CCC[C@H]1C(=O)N[C@@H]([C@@H](C)CC)C(=O)N(C)CC(=O)N(C)[C@H]2C/C=C\CCN(C2=O)[C@@H](Cc2ccc(C)cc2)C(=O)N(C)CC(=O)N[C@@H](CCc2ccc(Cl)c(Cl)c2)C(=O)N2C[C@H](OC3CCC3)C[C@H]2C(=O)NC2(CC(C)(C)C2)C(=O)N(C)[C@@H](C(CC)CC)C(=O)N(C)[C@H](C(=O)N(C)C)CC(=O)N1C [PP2644]	A (a compound having 10 or more and less than 20 is denoted as A)	AA (a compound having 20 or more is denoted as AA)
CCC(CC)[C@H]1C(=O)N(C)[C@H](C(=O)N(C)C)CC(=O)N(C)[C@@H](COC)C(=O)N[C@@H]([C@@H](C)CC)C(=O)N2CCC[C@H]2C(=O)N(C)[C@H]2C/C=C\CCN(C2=O)[C@@H](Cc2ccc(C(F)(F)F)cc2)C(=O)N(C)CC(=O)N[C@@H](CCc2ccc(Cl)c(Cl)c2)C(=O)N2C[C@H](OC3CCC3)C[C@H]2C(=O)NC2(CC(C)(C)C2)C(=O)N1C [PP2645]	A (a compound having 10 or more and less than 20 is denoted as A)	AA (a compound having 20 or more is denoted as AA)
CCC[C@H]1C(=O)N[C@@H]([C@@H](C)CC)C(=O)N2CCC[C@H]2C(=O)N(C)[C@H]2C/C=C\CCN(C2=O)[C@@H](Cc2ccc(C(F)F)cc2)C(=O)N(C)CC(=O)N[C@@H](CCc2ccc(Cl)c(Cl)c2)C(=O)N2C[C@H](OC3CCC3)C[C@H]2C(=O)NC2(CC(C)(C)C2)C(=O)N(C)[C@@H](C(CC)CC)C(=O)N(C)[C@H](C(=O)N(C)C)CC(=O)N1C [PP2646]	A (a compound having 10 or more and less than 20 is denoted as A)	AA (a compound having 20 or more is denoted as AA)
CCC(CC)[C@H]1C(=O)N(C)[C@H](C(=O)N(C)C)CC(=O)N(C)[C@@H](COC)C(=O)N[C@@H]([C@@H](C)CC)C(=O)N(C)CC(=O)N(C)[C@H]2C/C=C\CCN(C2=O)[C@@H](Cc2ccc(C(F)(F)F)cc2)C(=O)N(C)CC(=O)N[C@@H](CCc2ccc(Cl)c(Cl)c2)C(=O)N2C[C@H](OC3CCCC3)C[C@H]2C(=O)NC2(CC(C)(C)C2)C(=O)N1C [PP2648]	A (a compound having 10 or more and less than 20 is denoted as A)	A (a compound having 10 or more and less than 20 is denoted as A)
CCC(CC)[C@H]1C(=O)N(C)[C@H](C(=O)N(C)C)CC(=O)N(C)[C@@H](COC)C(=O)N[C@@H]([C@@H](C)CC)C(=O)N(C)CC(=O)N(C)[C@H]2C/C=C\CCN(C2=O)[C@@H](Cc2ccc(C(F)F)cc2)C(=O)N(C)CC(=O)N[C@@H](CCc2ccc(Cl)c(Cl)c2)C(=O)N2C[C@H](OC3CCCC3)C[C@H]2C(=O)NC2(CC(C)(C)C2)C(=O)N1C [PP2649]	A (a compound having 10 or more and less than 20 is denoted as A)	AA (a compound having 20 or more is denoted as AA)
CCC(CC)[C@H]1C(=O)N(C)[C@H](C(=O)N(C)C)CC(=O)N(C)[C@@H](COC)C(=O)N[C@@H]([C@@H](C)CC)C(=O)N2CCC[C@H]2C(=O)N(C)[C@H]2C/C=C\CCN(C2=O)[C@@H](Cc2ccc(C(F)(F)F)cc2)C(=O)N(C)CC(=O)N[C@@H](CCc2ccc(Cl)c(Cl)c2)C(=O)N2C[C@H](OC3CCCC3)C[C@H]2C(=O)NC2(CC(C)(C)C2)C(=O)N1C [PP2651]	A (a compound having 10 or more and less than 20 is denoted as A)	AA (a compound having 20 or more is denoted as AA)
CCC(CC)[C@H]1C(=O)N(C)[C@H](C(=O)N(C)C)CC(=O)N(C)[C@@H](COC)C(=O)N[C@@H]([C@@H](C)CC)C(=O)N2CCC[C@H]2C(=O)N(C)[C@H]2C/C=C\CCN(C2=O)[C@@H](Cc2ccc(C(F)F)cc2)C(=O)N(C)CC(=O)N[C@@H](CCc2ccc(Cl)c(Cl)c2)C(=O)N2C[C@H](OC3CCCC3)C[C@H]2C(=O)NC2(CC(C)(C)C2)C(=O)N1C [PP2652]	A (a compound having 10 or more and less than 20 is denoted as A)	AA (a compound having 20 or more is denoted as AA)
CC[C@H](C)[C@@H]1NC(=O)[C@H](COC)N(C)C(=O)C[C@@H](C(=O)N(C)C)N(C)C(=O)[C@H](C2CCCCC2)N(C)C(=O)C2(CC(C)(C)C2)NC(=O)[C@@H]2C[C@@H](OC(C)C)CN2C(=O)[C@H](CCc2cc(F)c(C(F)(F)F)c(F)c2)NC(=O)CN(C)C(=O)[C@H](Cc2ccc(C(F)(F)F)cc2)N2CC/C=C\C[C@@H](C2=O)N(C)C(=O)CN(C)C1=O [PP2654]	A (a compound having 10 or more and less than 20 is denoted as A)	A (a compound having 10 or more and less than 20 is denoted as A)
CC[C@H](C)[C@@H]1NC(=O)[C@H](COC)N(C)C(=O)C[C@@H](C(=O)N(C)C)N(C)C(=O)[C@H](C2CCCCC2)N(C)C(=O)C2(CC(C)(C)C2)NC(=O)[C@@H]2C[C@@H](OC3CCC3)CN2C(=O)[C@H](CCc2cc(F)c(C(F)(F)F)c(F)c2)NC(=O)CN(C)C(=O)[C@H](Cc2ccc(C(F)(F)F)cc2)N2CC/C=C\C[C@@H](C2=O)N(C)C(=O)CN(C)C1=O [PP2655]	A (a compound having 10 or more and less than 20 is denoted as A)	AA (a compound having 20 or more is denoted as AA)
CC[C@H](C)[C@@H]1NC(=O)[C@H](COC)N(C)C(=O)C[C@@H](C(=O)N(C)C)N(C)C(=O)[C@H](C2CCCCC2)N(C)C(=O)C2(CC(C)(C)C2)NC(=O)[C@@H]2C[C@@H](OC3CCCC3)CN2C(=O)[C@H](CCc2cc(F)c(C(F)(F)F)c(F)c2)NC(=O)CN(C)C(=O)[C@H](Cc2ccc(C(F)(F)F)cc2)N2CC/C=C\C[C@@H](C2=O)N(C)C(=O)CN(C)C1=O [PP2656]	B (a compound having 3 or more and less than 10 is denoted as B)	A (a compound having 10 or more and less than 20 is denoted as A)
CCO[C@@H]1C[C@H]2C(=O)NC3(CC(C)(C)C3)C(=O)N(C)[C@@H](C3CCCCC3)C(=O)N(C)[C@H](C(=O)N(C)C)CC(=O)N(C)[C@@H](COC)C(=O)N[C@@H]([C@@H](C)CC)C(=O)N(C3CC3)CC(=O)N(C)[C@H]3C/C=C\CCN(C3=O)[C@@H](Cc3ccc(C(F)(F)F)cc3)C(=O)N(C)CC(=O)N[C@@H](CCc3cc(F)c(C(F)(F)F)c(F)c3)C(=O)N2C1 [PP2657]	A (a compound having 10 or more and less than 20 is denoted as A)	A (a compound having 10 or more and less than 20 is denoted as A)
CCO[C@@H]1C[C@H]2C(=O)NC3(CC(C)(C)C3)C(=O)N(C)[C@@H](C3CCCCC3)C(=O)N(C)[C@H](C(=O)N(C)C)CC(=O)N(C)[C@@H](COC)C(=O)N[C@@H]([C@@H](C)CC)C(=O)N(C)CC(=O)N(C)[C@H]3C/C=C\CCN(C3=O)[C@@H](Cc3ccc(C)cc3)C(=O)N(C)CC(=O)N[C@@H](CCc3cc(F)c(C(F)(F)F)c(F)c3)C(=O)N2C1 [PP2659]	A (a compound having 10 or more and less than 20 is denoted as A)	A (a compound having 10 or more and less than 20 is denoted as A)
